# System: MCF-7 breast cancer cells
# Test: Microarray gene expression analysis (Agilent whole human genome 4 x 44K; compound vs DMSO, LIMMA log2 fold change)
# Assay type: cell-based
structure (smiles),measurement,setting,value
Cn1ncc2c(N3CCOCC3)nc(-c3cccc(O)c3)nc21 [ETP-45658],EYA1 log2FC,"gene EYA1 (2138), apoptosis genes",0.012
same,log2FC EYA1,"gene EYA1 (Gene 2138), cell cycle genes",0.012
same,FABP1 log2FC,"gene FABP1 (2168), apoptosis genes",0.009
same,FAIM2 log2FC,"gene FAIM2 (23017), apoptosis genes",-0.062
same,FAM3B log2FC,"gene FAM3B (54097), apoptosis genes",-0.028
same,FAM32A log2FC,"gene FAM32A (26017), apoptosis genes",-0.032
same,log2FC FAM32A,"gene FAM32A (Gene 26017), cell cycle genes",-0.032
same,log2FC,"gene FAM58A (Gene 92002), cell cycle genes",0.217
same,FAS log2FC,"gene FAS (355), apoptosis genes",-0.032
same,log2FC,"gene FBXL15 (Gene 79176), cell cycle genes",0.209
same,log2FC FGFR1OP,"gene FGFR1OP (Gene 11116), cell cycle genes",-0.035
same,FIS1 log2FC,"gene FIS1 (51024), apoptosis genes",-0.018
same,FKSG2 log2FC,"gene FKSG2 (59347), apoptosis genes",0.133
same,log2FC,"gene FMN2 (Gene 56776), cell cycle genes",0.105
same,FOXB1 log2FC,"gene FOXB1 (27023), apoptosis genes",-0.340
same,log2FC,"gene FSD1 (Gene 79187), cell cycle genes",-0.401
same,GADD45G log2FC,"gene GADD45G (10912), apoptosis genes",-0.067
same,GAPDH log2FC,"gene GAPDH (2597), apoptosis genes",-0.037
same,log2FC,"gene GAS2L1 (Gene 10634), cell cycle genes",-0.313
same,log2FC GAS2L2,"gene GAS2L2 (Gene 246176), cell cycle genes",-0.00355
same,GAS6 log2FC,"gene GAS6 (2621), apoptosis genes",-0.052
same,GATA6 log2FC,"gene GATA6 (2627), apoptosis genes",-0.019
same,log2FC GATA6,"gene GATA6 (Gene 2627), cell cycle genes",-0.019
same,GCG log2FC,"gene GCG (2641), apoptosis genes",0.020
same,GCLM log2FC,"gene GCLM (2730), apoptosis genes",-0.092
same,GCM2 log2FC,"gene GCM2 (9247), apoptosis genes",-0.015
same,log2FC,"gene GEM (Gene 2669), cell cycle genes",0.406
same,GFRAL log2FC,"gene GFRAL (389400), apoptosis genes",0.017
same,GHRL log2FC,"gene GHRL (51738), apoptosis genes",-0.012
same,GIMAP5 log2FC,"gene GIMAP5 (55340), apoptosis genes",0.026
same,GJB6 log2FC,"gene GJB6 (10804), apoptosis genes",-0.056
same,log2FC,"gene GOLGA2 (Gene 2801), cell cycle genes",0.210
same,log2FC,"gene GORASP1 (Gene 64689), cell cycle genes",0.146
same,log2FC,"gene GORASP2 (Gene 26003), cell cycle genes",-0.256
same,GPI log2FC,"gene GPI (2821), apoptosis genes",-0.083
same,GPR65 log2FC,"gene GPR65 (8477), apoptosis genes",0.021
same,GRK1 log2FC,"gene GRK1 (6011), apoptosis genes",-0.013
same,log2FC,"gene GTPBP8 (Gene 29083), cell cycle genes",0.316
same,log2FC,"gene GTSE1 (Gene 51512), cell cycle genes",-0.374
same,log2FC H1FOO,"gene H1FOO (Gene 132243), cell cycle genes",0.014
same,HCLS1 log2FC,"gene HCLS1 (3059), apoptosis genes",0.022
same,log2FC,"gene HELLS (Gene 3070), cell cycle genes",0.388
same,HIPK3 log2FC,"gene HIPK3 (10114), apoptosis genes",0.006
same,log2FC HORMAD2,"gene HORMAD2 (Gene 150280), cell cycle genes",0.014
same,log2FC HPGD,"gene HPGD (Gene 3248), cell cycle genes",0.013
same,HPN log2FC,"gene HPN (3249), apoptosis genes",-0.022
same,HTRA2 log2FC,"gene HTRA2 (27429), apoptosis genes",0.031
same,log2FC HTRA2,"gene HTRA2 (Gene 27429), cell cycle genes",0.031
same,IFI6 log2FC,"gene IFI6 (2537), apoptosis genes",0.041
same,IFNA2 log2FC,"gene IFNA2 (3440), apoptosis genes",-0.017
same,IFNB1 log2FC,"gene IFNB1 (3456), apoptosis genes",0.00571
same,IL1A log2FC,"gene IL1A (3552), apoptosis genes",-0.044
same,IL2RA log2FC,"gene IL2RA (3559), apoptosis genes",-0.031
same,IL2RB log2FC,"gene IL2RB (3560), apoptosis genes",0.014
same,IL12A log2FC,"gene IL12A (3592), apoptosis genes",0.00544
same,log2FC IL12A,"gene IL12A (Gene 3592), cell cycle genes",0.00544
same,IL12B log2FC,"gene IL12B (3593), apoptosis genes",-0.025
same,IL17A log2FC,"gene IL17A (3605), apoptosis genes",-0.016
same,IL19 log2FC,"gene IL19 (29949), apoptosis genes",-0.00458
same,ILK log2FC,"gene ILK (3611), apoptosis genes",-0.066
same,log2FC ILKAP,"gene ILKAP (Gene 80895), cell cycle genes",0.002
same,INSL6 log2FC,"gene INSL6 (11172), apoptosis genes",0.055
same,ISL1 log2FC,"gene ISL1 (3670), apoptosis genes",-0.036
same,ITGA6 log2FC,"gene ITGA6 (3655), apoptosis genes",-0.050
same,ITGB2 log2FC,"gene ITGB2 (3689), apoptosis genes",-0.075
same,ITM2C log2FC,"gene ITM2C (81618), apoptosis genes",-0.082
same,log2FC KATNB1,"gene KATNB1 (Gene 10300), cell cycle genes",0.014
same,log2FC KCNA5,"gene KCNA5 (Gene 3741), cell cycle genes",-0.012
same,KDR log2FC,"gene KDR (3791), apoptosis genes",-0.026
same,log2FC,"gene KIAA0101 (Gene 9768), cell cycle genes",0.294
same,KIAA1324 log2FC,"gene KIAA1324 (57535), apoptosis genes",-0.008
same,log2FC KIF2B,"gene KIF2B (Gene 84643), cell cycle genes",-0.018
same,log2FC,"gene KIF13A (Gene 63971), cell cycle genes",0.190
same,log2FC,"gene KIF23 (Gene 9493), cell cycle genes",0.530
same,log2FC KIF25,"gene KIF25 (Gene 3834), cell cycle genes",-0.013
same,KLF4 log2FC,"gene KLF4 (9314), apoptosis genes",-0.009
same,KRT20 log2FC,"gene KRT20 (54474), apoptosis genes",-0.037
same,LALBA log2FC,"gene LALBA (3906), apoptosis genes",0.031
same,log2FC LATS1,"gene LATS1 (Gene 9113), cell cycle genes",0.043
same,log2FC,"gene LATS2 (Gene 26524), cell cycle genes",0.213
same,LCMT1 log2FC,"gene LCMT1 (51451), apoptosis genes",-0.115
same,LCN2 log2FC,"gene LCN2 (3934), apoptosis genes",0.046
same,log2FC,"gene LEMD3 (Gene 23592), cell cycle genes",0.294
same,LGALS1 log2FC,"gene LGALS1 (3956), apoptosis genes",0.017
same,LGALS12 log2FC,"gene LGALS12 (85329), apoptosis genes",0.013
same,LGALS14 log2FC,"gene LGALS14 (56891), apoptosis genes",-0.009
same,log2FC,"gene LMNA (Gene 4000), cell cycle genes",-0.311
same,LRP1 log2FC,"gene LRP1 (4035), apoptosis genes",0.0019
same,log2FC,"gene LRP6 (Gene 4040), cell cycle genes",-0.141
same,log2FC,"gene LSM11 (Gene 134353), cell cycle genes",0.145
same,LTA log2FC,"gene LTA (4049), apoptosis genes",-0.039
same,LTF log2FC,"gene LTF (4057), apoptosis genes",0.011
same,MAD2L1 log2FC,"gene MAD2L1 (4085), apoptosis genes",0.081
same,MAEL log2FC,"gene MAEL (84944), apoptosis genes",-0.018
same,log2FC MAEL,"gene MAEL (Gene 84944), cell cycle genes",-0.018
same,MAGED1 log2FC,"gene MAGED1 (9500), apoptosis genes",-0.026
same,MAGEH1 log2FC,"gene MAGEH1 (28986), apoptosis genes",-0.040
same,MAP2K5 log2FC,"gene MAP2K5 (5607), apoptosis genes",-0.077
same,MAP2K7 log2FC,"gene MAP2K7 (5609), apoptosis genes",0.020
same,log2FC,"gene MAP3K8 (Gene 1326), cell cycle genes",0.390
same,log2FC,"gene MAP4 (Gene 4134), cell cycle genes",-0.267
same,MAPK1 log2FC,"gene MAPK1 (5594), apoptosis genes",-0.045
same,log2FC,"gene MAPK4 (Gene 5596), cell cycle genes",-0.157
same,log2FC,"gene MAPK6 (Gene 5597), cell cycle genes",0.270
same,MAPK8 log2FC,"gene MAPK8 (5599), apoptosis genes",0.027
same,MAPK9 log2FC,"gene MAPK9 (5601), apoptosis genes",0.064
same,log2FC,"gene MAPK12 (Gene 6300), cell cycle genes",-0.374
same,MAPT log2FC,"gene MAPT (4137), apoptosis genes",-0.024
same,log2FC MCM4,"gene MCM4 (Gene 4173), cell cycle genes",0.015
same,MDM4 log2FC,"gene MDM4 (4194), apoptosis genes",0.064
same,log2FC,"gene MED25 (Gene 81857), cell cycle genes",-0.377
same,MKL1 log2FC,"gene MKL1 (57591), apoptosis genes",0.068
same,MKNK1 log2FC,"gene MKNK1 (8569), apoptosis genes",-0.00243
same,MNDA log2FC,"gene MNDA (4332), apoptosis genes",-0.056
same,MSX2 log2FC,"gene MSX2 (4488), apoptosis genes",0.054
same,MT3 log2FC,"gene MT3 (4504), apoptosis genes",-0.266
same,log2FC,"gene MYOG (Gene 4656), cell cycle genes",-0.210
same,NACA log2FC,"gene NACA (4666), apoptosis genes",0.023
same,log2FC NANOG,"gene NANOG (Gene 79923), cell cycle genes",-0.00653
same,log2FC,"gene NASP (Gene 4678), cell cycle genes",0.392
same,NCF1 log2FC,"gene NCF1 (653361), apoptosis genes",-0.052
same,NCF2 log2FC,"gene NCF2 (4688), apoptosis genes",-0.027
same,log2FC,"gene NCOR1 (Gene 9611), cell cycle genes",0.294
same,NDUFS3 log2FC,"gene NDUFS3 (4722), apoptosis genes",-0.101
same,NEURL log2FC,"gene NEURL (9148), apoptosis genes",-0.034
same,NEUROD1 log2FC,"gene NEUROD1 (4760), apoptosis genes",-0.043
same,log2FC NEUROG1,"gene NEUROG1 (Gene 4762), cell cycle genes",0.161
same,NLE1 log2FC,"gene NLE1 (54475), apoptosis genes",0.057
same,NME6 log2FC,"gene NME6 (10201), apoptosis genes",-0.008
same,log2FC NME6,"gene NME6 (Gene 10201), cell cycle genes",-0.008
same,NOS1AP log2FC,"gene NOS1AP (9722), apoptosis genes",0.022
same,NOTCH1 log2FC,"gene NOTCH1 (4851), apoptosis genes",-0.090
same,NOX5 log2FC,"gene NOX5 (79400), apoptosis genes",-0.012
same,log2FC NOX5,"gene NOX5 (Gene 79400), cell cycle genes",-0.012
same,NTRK1 log2FC,"gene NTRK1 (4914), apoptosis genes",-0.014
same,log2FC,"gene NUMA1 (Gene 4926), cell cycle genes",-0.415
same,log2FC,"gene NUP153 (Gene 9972), cell cycle genes",-0.238
same,log2FC NUP155,"gene NUP155 (Gene 9631), cell cycle genes",-0.034
same,log2FC,"gene NUP188 (Gene 23511), cell cycle genes",-0.304
same,NUPR1 log2FC,"gene NUPR1 (26471), apoptosis genes",0.023
same,OSR1 log2FC,"gene OSR1 (130497), apoptosis genes",-0.039
same,P4HB log2FC,"gene P4HB (5034), apoptosis genes",0.022
same,log2FC,"gene PA2G4 (Gene 5036), cell cycle genes",-0.298
same,PAFAH2 log2FC,"gene PAFAH2 (5051), apoptosis genes",0.046
same,PAK6 log2FC,"gene PAK6 (56924), apoptosis genes",-0.022
same,log2FC PAK6,"gene PAK6 (Gene 56924), cell cycle genes",-0.022
same,log2FC,"gene PAPD5 (Gene 64282), cell cycle genes",0.341
same,PARK7 log2FC,"gene PARK7 (11315), apoptosis genes",0.028
same,PAX2 log2FC,"gene PAX2 (5076), apoptosis genes",0.003
same,log2FC PCNA,"gene PCNA (Gene 5111), cell cycle genes",-0.00322
same,PCSK9 log2FC,"gene PCSK9 (255738), apoptosis genes",-0.039
same,log2FC PDCD2L,"gene PDCD2L (Gene 84306), cell cycle genes",0.012
same,PDCD5 log2FC,"gene PDCD5 (9141), apoptosis genes",0.123
same,PDCL3 log2FC,"gene PDCL3 (79031), apoptosis genes",-0.100
same,PDE1B log2FC,"gene PDE1B (5153), apoptosis genes",0.004
same,PDE3A log2FC,"gene PDE3A (5139), apoptosis genes",-0.006
same,log2FC PDE3A,"gene PDE3A (Gene 5139), cell cycle genes",-0.006

# From paper PMC4303209, “A novel phosphatidylinositol 3-kinase (PI3K) inhibitor directs a potent FOXO-dependent, p53-independent cell cycle arrest phenotype characterized by the differential induction of a subset of FOXO-regulated genes” (Breast Cancer Research : BCR, 2014)
